In patent US20240131046A1, “ANTI-VIRAL AGENT” (NATIONAL UNIVERSITY CORPORATION HOKKAIDO UNIVERSITY, priority 2021, published 2024):

Test system: SARS-CoV-2 (strain WK-521) and various variants thereof
Assay type: cell-based

In the case of Nc1ncnc2c1c(CO)cn2[C@@H]1O[C@H](CO)[C@@H](O)[C@H]1O [HUP1108, 5-hydroxymethyltubercidin], the “virus amount released from infected cells / antiviral activity against variant strains” value is reported as “has antiviral activity against various variant strains of SARS-CoV-2”.
